Measurements reported in patent US9585861B1, “Method for treating a cancer with a mixed ligand gold(III) complexes as anti-cancer agents” (KING FAHD UNIVERSITY OF PETROLEUM AND MINERALS, priority 2015, dated 2017).
Where two headings read alike, the source gives them in different places.

Key:
[1] = tested on: human gastric SGC7901 cancer cells; experiment: MTT assay, in vitro cytotoxicity / cell growth inhibition on SGC7901 cells; type: cell-based; conditions: for time dependent antiproliferative effect: 10 μM, 24 h and 72 h; for IC50: 72 h exposure, MTT
Procedure: (§1) Human gastric SGC7901 cancer and prostate PC3 cancer cell lines were provided by American Type Culture Collection (ATCC). Cells were cultured in Dulbecco's Modified Eagle Medium (DMEM) supplemented with 10% fetal calf serum (FCS), penicillin (100 kU L^−1) and streptomycin (0.1 g L^−1) at 37° C. in a 5% CO2-95% air atmosphere. MTT (3-(4,5-Dimethylthiazol-2-yl)-2,5-diphenyltetrazolium bromide, a yellow tetrazole) was purchased from Sigma Chemical Co, St. Louis, Mo., USA.
(§2) An MTT assay was used to obtain the number of living cells in the sample. Human gastric cancer SGC7901 and prostate cancer PC3 cells were seeded on 96-well plates at a predetermined optimal cell density, i.e. ca 6000 cells/100 μL per well in 96-well plates, to ensure exponential growth in the duration of the assay. After 24 h pre-incubation, the growth medium was replaced with the experimental medium containing the appropriate drug, using one of 1,2-diaminocyclohexane(1,3-propylenediamine)gold(III) chloride compounds 1, 2 and 3 or a control using water. Six duplicate wells were set up for each sample, and cells untreated with drug served as a control. In one set of culture plates, human gastric cancer SGC7901 and human prostate PC3 cells were treated with 10 μM compounds 1, 2 and 3 as the drug and the control (water) for 24, 48 and 72 h. In other sets, the compounds 1, 2 and 3 with different concentration, i.e. 10, 20 and 30 μM, were employed to determine the growth inhibitory effect for both PC3 and SGC7901 cells separately. After incubation, 10 μL MTT (6 g/L, Sigma) was added to each well and the incubation was continued for 4 h at 37° C. After removal of the medium, MTT stabilization solution [dimethylsulfoxide (DMSO):ethanol=1:1] was added to each well, and shaken for 10 min until all crystals were dissolved. Then, the optical density was detected in a micro plate reader at 550 nm wavelength using an Enzyme-Linked Immuno-Sorbent Assay (ELISA) reader. After being treated with the 1,2-diaminocyclohexane(1,3-propylenediamine)gold(III) chloride compounds 1, 2 and 3, the cell viability was examined by MTT assay. Each assay was performed in triplicate. […] These cells were treated with various concentrations of compounds 1, 2 and 3 for 24-72 h.
(§3) Human gastric SGC7901 cells and prostate PC3 cells were incubated with these compounds at fixed concentrations or with water as a control to assess the inhibitory effect on cell growth. […] The cell survival versus drug concentration is plotted. Cytotoxicity was evaluated in vitro with reference to the IC50 value. The half maximal inhibitory concentration (IC50) is a measure of the effectiveness of a compound to inhibit biological or biochemical functions. According to the FDA, IC50 represents the concentration of a drug/compound/complex that is required for 50% inhibition in vitro. It is evaluated from the survival curves as the concentration needed for a 50% reduction of survival. IC50 values are expressed in μM.
(§4) The in vitro cytotoxic effect of mixed ligand gold(III) diamine complexes against androgen-resistant prostate PC3 and human gastric SGC7901 cancer cells were studied using MTT assay. […] For that reason, we used different concentrations and a 3-day exposure protocol to determine the IC50 values for all three complexes. The in vitro cytotoxicity in terms of IC50 values of cisplatin for PC3 and SGC7901 cells was included for a comparison.

[2] = tested on: human prostate PC3 cancer cells; experiment: MTT assay, in vitro cytotoxicity / cell growth inhibition on PC3 cells; type: cell-based; conditions: for time dependent antiproliferative effect: 10 μM, 24 h and 72 h; for IC50: 72 h exposure, MTT
Procedure: as §1, §2, §3, §4

[3] = Cyclic voltammetry in reference phosphate buffer; type: physicochemical; conditions: 1.0 mM, phosphate buffer pH 7.4, platinum electrode, 50 mV/s, room temperature
Procedure: The electrochemical experiments performed at room temperature using a potentiostat (SP-300, BioLogic Science Instruments) controlled by EC-Lab v10.34 software package. The electrochemical experiments were performed at room temperature. All the measurements were performed on solutions deaerated by bubbling ultra-pure nitrogen for 15 min. The values of potential here reported were measured against a saturated calomel electrode (SCE). The cyclic voltammetry of the compounds 1, 2 and 3 were measured at scan rate of 50 mV/s on a reference buffer (40 mM phosphate, 4 mM NaCl, pH 7.4) using platinum as working electrode and graphite as a counter electrode with a concentration of 1.0 mM at room temperature. Ferrocene was used as pseudo reference to calibrate the working electrode. The couple Fe^III/II formal potential of ferrocene occur at E°′=+0.44 V (vs SCE) in 0.1 M Bu4NPF6 solution in acetonitrile which is similar to the report value under the same experimental condition [Hans J, Beckmann A, Krüger H J (1999) Eur. J. Inorg. Chem. 163-172—incorporated herein by reference in its entirety]. Conversion to values vs NHE was obtained upon adding +0.24 V to the corresponding SCE values.
The electrochemical behavior of compounds 1, 2 and 3 was investigated in a physiological environment through cyclic voltammetry (CV). […] Gold(III) complexes 1, 2 and 3 show one irreversible reduction process in which the controlled potential coulometry involves three electrons per mole. The occurrence of Au(III)/Au(O) reduction is visually indicated by the appearance of a thin gold layer deposited on the platinum electrode surface after exhaustive electrolysis (Ew, −0.7 V).

[4] = NMR stability in D2O and mixed DMSO-d6/D2O; type: physicochemical; conditions: DMSO-d6/D2O (v/v 2/1), room temperature, after 7 days
Procedure: Compounds 1, 2 and 3 were tested for their stability in water as well as mixed solvents of DMSO/water (2/1 v/v ratio) solution by ^13C and ^1H NMR. […] The hydroscopic nature of DMSO could unfortunately lead to stability issue [Ellson R, Stearns R, Mutz M, Brown C, Browning B, Harris D, Qureshi S. Shieh J, Wold D (2005) Comb. Chem. High Throughput Screen, 8:489-498—incorporated herein by reference in its entirety]. To investigate the structural stability of the compounds, NMR spectra of the compounds dissolved in D2O and mixed DMSO-d6/D2O (v/v: 2/1) solvents were obtained on immediate dissolution and latter at 24 h and after three days 72 h at room temperature in mixed DMSO-d6/D2O and at 37° C. in D2O . A minimum of 30 mg/mL of representative gold(III) compounds 1, 2 and 3 were subjected to ^1H and ^13C NMR spectra analysis followed by dissolution in D2O and DMSO-d6/D2O (v/v: 2/1, 1 mL). The duplicate samples were dissolved and immediately stored at room temperature and 37° C., respectively, and followed by determination of stability through NMR measurements for compounds 1, 2 and 3 overtime periods of 24 h and 72 h.
The NMR spectra of the complexes were obtained upon immediate dissolution to serve as reference spectra and later at 24 h and after 7 days at 37° C. in D2O and at room temperature in mixed DMSO-d6/D2O in order to determine their stability. […]

[5] = read-out: IC50 (concentration of sample required to reduce the cell growth of tumor cell line by 50%)
[6] = listed as complex 1, read-out: IC50 (concentration of sample required to reduce the cell growth of tumor cell line by 50%)
[7] = listed as complex 3, read-out: IC50 (concentration of sample required to reduce the cell growth of tumor cell line by 50%)

NC1CCCCC1N.NCCCN.[Au+3].[Cl-].[Cl-].[Cl-] (racemic) [Complex 2, trans-(±)-1,2-diaminocyclohexane(1,3-propylenediamine)gold(III) chloride]
time dependent antiproliferative effect [1]: complex 3>complex 2>complex 1
IC50 [1, 5]: 10.9 µM
time dependent antiproliferative effect [2]: complex 3>complex 2>complex 1
IC50 [2, 5]: 10.2 µM
Peak potential Ep vs. NHE for reduction [3]: 0.25 V

N.N.[Cl][Pt][Cl] [Cisplatin, reference compound]
IC50 [1, 5]: 7.3 µM
IC50 [2, 5]: 1.1 µM

NC1CCCCC1N.NCCCN.[Au+3].[Cl-].[Cl-].[Cl-] (stereo not drawn) [Complex 1, cis-1,2-diaminocyclohexane(1,3-propylenediamine)gold(III) chloride]
time dependent antiproliferative effect ([1]; listed as complex 1): complex 3>complex 2>complex 1
IC50 [1, 6]: 10.8 µM
concentration dependent cell growth inhibition ([2]; 10 μM and 20 μM, 24 h): much better cell inhibition against PC3 cancer cell than complexes 3 and 2
time dependent antiproliferative effect ([2]; listed as complex 1): complex 3>complex 2>complex 1
IC50 [2, 6]: 9.5 µM
Peak potential Ep vs. NHE for reduction ([3]; listed as 1): 0.34 V

NC1CCCCC1N.NCCCN.[Au+3].[Cl-].[Cl-].[Cl-] [Complex 3, (S,S)-(+)-1,2-diaminocyclohexane(1,3-propylenediamine)gold(III) chloride]
time dependent antiproliferative effect [1]: better cell inhibition against both PC3 and SGC7901 cell lines than complexes 1 and 2
time dependent antiproliferative effect ([1]; listed as complex 3): complex 3>complex 2>complex 1
IC50 [1, 7]: 10.1 µM
time dependent antiproliferative effect [2]: better cell inhibition against both PC3 and SGC7901 cell lines than complexes 1 and 2
time dependent antiproliferative effect ([2]; listed as complex 3): complex 3>complex 2>complex 1
IC50 [2, 7]: 9.1 µM
dissociation of 1,3-propylenediamine [4]: approximately 50%
Peak potential Ep vs. NHE for reduction ([3]; listed as 3): 0.24 V
